Results reported in patent US20220030868A1, “FUNGICIDAL HALOMETHYL KETONES AND HYDRATES” (FMC CORPORATION, priority 2018, published 2022).

Experiments:
[1] = test system: Phakopsora pachyrhizi; experiment: Test A: test suspension sprayed on soybean seedlings one day before inoculation with Phakopsora pachyrhizi spores (Asian soybean rust), visual disease rating; format: in vivo; conditions: 100 = 100% disease control, 0 = no control; for pest or weed control at 10 ppm / pest or weed control at 50 ppm: Phakopsora pachyrhizi
Description: General protocol for preparing test suspensions for Tests A-C: the test compounds were first dissolved in acetone in an amount equal to 3% of the final volume and then suspended at the desired concentration (in ppm) in acetone and purified water (50/50 mix by volume) containing 250 ppm of the surfactant PEG400 (polyhydric alcohol esters). The resulting test suspensions were then used in Tests A-C.
The test solution was sprayed to the point of run-off on soybean seedlings. The following day the seedlings were inoculated with a spore suspension of Phakopsora pachyrhizi (the causal agent of Asian soybean rust) and incubated in a saturated atmosphere at 22° C. for 24 h, and then moved to a growth chamber at 22° C. for 8 days, after which time visual disease ratings were made.
Results for Tests A-C are given in Table A. In the Table, a rating of 100 indicates 100% disease control and a rating of 0 indicates no disease control (relative to the controls). An asterisk “*” or a double asterisk “**” next to the rating value indicates a 50 ppm or 10 ppm test suspension was used, respectively. A dash (-) indicates the compound was not tested.

[2] = test system: Puccinia recondita f. sp. tritici; experiment: Test B: test suspension sprayed on wheat seedlings one day before inoculation with Puccinia recondita f. sp. tritici spores (wheat leaf rust), disease rating; format: in vivo; conditions: 100 = 100% disease control, 0 = no control
Description: General protocol for preparing test suspensions for Tests A-C: the test compounds were first dissolved in acetone in an amount equal to 3% of the final volume and then suspended at the desired concentration (in ppm) in acetone and purified water (50/50 mix by volume) containing 250 ppm of the surfactant PEG400 (polyhydric alcohol esters). The resulting test suspensions were then used in Tests A-C. The test solution was sprayed to the point of run-off on wheat seedlings. The following day the seedlings were inoculated with a spore suspension of Puccinia recondita f. sp. tritici (the causal agent of wheat leaf rust) and incubated in a saturated atmosphere at 20° C. for 24 h, and then moved to a growth chamber at 20° C. for 6 days, after which time disease ratings were made. Results for Tests A-C are given in Table A. In the Table, a rating of 100 indicates 100% disease control and a rating of 0 indicates no disease control (relative to the controls). An asterisk “*” or a double asterisk “**” next to the rating value indicates a 50 ppm or 10 ppm test suspension was used, respectively. A dash (-) indicates the compound was not tested.

| SMILES | Test A rating (disease control) ([1]; 10 ppm test suspension) [%] | Test B rating (disease control) ([2]; 10 ppm test suspension) [%] | further results |
| --- | --- | --- | --- |
| O=C(OCC(=O)C1CCCCC1)c1cnn(Cc2ccc(OCC3(C(F)(F)F)OCCO3)cc2)c1 [compound 202] | 100 | 0 |  |
| CCCC(=O)N(Cc1ccc(OCC2(C(F)(F)F)OCCO2)cc1)OC [compound 237] | 97 | 0 |  |
| CN(C)S(=O)(=O)c1ccc(OCC2(C(F)(F)F)OCCO2)cc1 [compound 25] | 0 | 0 |  |
| CCOC(=O)NCc1ccc(OCC2(C(F)(F)F)OCCO2)cc1 [compound 78] | 94 | 0 |  |
| CCOC(=O)c1cnn(CCc2ccc(OCC(O)(O)C(F)(F)F)cc2)c1 [Compound 131] |  |  | Test A rating (disease control) ([1]; 50 ppm test suspension): 99%; Test B rating (disease control) ([2]; 50 ppm test suspension): 86% |
| COC(C)C(=O)NCc1ccc(OCC2(C(F)(F)F)OCCO2)cc1 (centres unmarked) [compound 214] | 0 | 0 |  |
| CSc1nccc(Cc2ccc(OCC3(C(F)(F)F)OCCO3)cc2)n1 [compound 281] |  |  | Test A rating (disease control) ([1]; 50 ppm test suspension): 95%; Test B rating (disease control) ([2]; 50 ppm test suspension): 98% |
| CCO/C(=C\Oc1cccc(Cn2cc(C(=O)OC)cn2)c1)C(F)(F)F [Compound 330, methyl 1-[[3-[[(1Z)-2-ethoxy-3,3,3-trifluoro-1-propen-1-yl]oxy]phenyl]methyl]-1H-pyrazole-4-carboxylate] |  |  | pest or weed control at 10 ppm ([1]; 10 ppm test suspension): 100%; pest or weed control at 10 ppm ([2]; 10 ppm test suspension): 0% |
| CCO/C(=C\Oc1ccc(CN2C(=O)c3ccccc3C2=O)cc1)C(F)(F)F [compound 184] | 0 | 0 |  |
| CCOC(=O)C1=NOC(Cc2ccc(OC=C(OCC)C(F)(F)F)cc2)C1 (mixture of isomers) [compound 287] |  |  | Test A rating (disease control) ([1]; 50 ppm test suspension): 77%; Test B rating (disease control) ([2]; 50 ppm test suspension): 0% |
| CCOC(=O)c1cnn(Cc2ccc(OCC3(C(F)(F)F)OCCO3)nc2)c1 [compound 168] |  |  | pest or weed control at 10 ppm ([1]; 10 ppm test suspension): 0%; pest or weed control at 10 ppm ([2]; 10 ppm test suspension): 0% |
| OC(O)(CCc1ccc(Cn2ccc3ccccc32)cc1)C(F)(F)F [Compound 30] | 0 | 0 |  |
| CCCCOC(=O)c1cnn(Cc2ccc(OCC3(C(F)(F)F)OCCO3)cc2)c1 [compound 125] | 100 | 0 |  |
| CCOC(=O)c1cnn(Cc2ccc(CCC3(C(F)(F)F)OCCO3)cc2)c1 [compound 67] |  |  | Test A rating (disease control) ([1]; 50 ppm test suspension): 65%; Test B rating (disease control) ([2]; 50 ppm test suspension): 0% |
| CCO/C(=C\Oc1cccc(Cn2cc(C(=O)OCCOC)cn2)c1)C(F)(F)F [compound 340] | 100 | 0 |  |
| CCOC(=O)c1cnn(Cc2cccc(OCC3(C(F)(F)F)OCCO3)c2)c1 [compound 146] |  |  | pest or weed control at 50 ppm ([1]; 50 ppm test suspension): 60%; pest or weed control at 50 ppm ([2]; 50 ppm test suspension): 0% |
| CCO/C(=C\Oc1cccc(Cn2cc(C(=O)O)cn2)c1)C(F)(F)F [compound 323] |  |  | Test A rating (disease control) ([1]; 50 ppm test suspension): 100%; Test B rating (disease control) ([2]; 50 ppm test suspension): 0% |
| CCOC(=O)c1cnn(Cc2cccc(OCC(O)(O)C(F)(F)F)c2)c1 [Compound 266, ethyl 1-[[3-(3,3,3-trifluoro-2,2-dihydroxypropoxy)phenyl]methyl]-1H-pyrazole-4-carboxylate] |  |  | pest or weed control at 50 ppm ([1]; 50 ppm test suspension): 86%; pest or weed control at 50 ppm ([2]; 50 ppm test suspension): 74% |
| CCO/C(=C\Oc1ccc(CN2CCCC2=O)cc1)C(F)(F)F [compound 224] | 0 | 0 |  |
| O=C(c1csc(Cc2ccc(OCC(O)(O)C(F)(F)F)cc2)n1)N1CCC(F)(F)C1 [Compound 135] | 86 | 61 |  |
| CCOC(=O)c1cnn(Cc2cccc(O/C=C(\OCC)C(F)(F)F)c2C)c1 [compound 303] |  |  | pest or weed control at 50 ppm ([1]; 50 ppm test suspension): 0%; pest or weed control at 50 ppm ([2]; 50 ppm test suspension): 0% |
| CCOC(=O)c1cnn(C(C)c2cccc(O/C=C(\OCC)C(F)(F)F)c2)c1 (centres unmarked) [compound 304] |  |  | Test A rating (disease control) ([1]; 50 ppm test suspension): 96%; Test B rating (disease control) ([2]; 50 ppm test suspension): 0% |
| CCO/C(=C\Oc1ccc(Cn2cnc(SC)n2)cc1)C(F)(F)F [Compound 261] | 0 | 0 |  |
| CCOC(=O)c1ccnn1Cc1ccc(O/C=C(\OCC)C(F)(F)F)cc1 [compound 241] | 0 | 0 |  |
| CCOC(=O)c1cnn(CCCc2ccc(OCC(O)(O)C(F)(F)F)cc2)c1 [Compound 286] | 87 | 55 |  |

| SMILES | Test A rating (disease control) ([1]; 10 ppm test suspension) [%] | Test B rating (disease control) ([2]; 10 ppm test suspension) [%] | further results |
| --- | --- | --- | --- |
| COC(=O)COC(=O)c1cnn(Cc2ccc(OCC3(C(F)(F)F)OCCO3)cc2)c1 [compound 203] | 50 | 0 |  |
| OC(O)(COc1ccc(OCC(O)(O)C(F)(F)F)cc1)C(F)(F)F [Compound 2] | 77 | 32 |  |
| CCOC(=O)c1cnn(Cc2ccc(OC(F)(F)C3(C(F)(F)F)OCCO3)cc2)c1 [compound 319] |  |  | Test A rating (disease control) ([1]; 50 ppm test suspension): 100%; Test B rating (disease control) ([2]; 50 ppm test suspension): 41% |
| CCCO/C(=C\Oc1cccc(Cn2cc(C(=O)OCC)cn2)c1)C(F)(F)F [compound 324] | 0 | 0 |  |
| CCO/C(=C\Oc1ccc(Cn2ncc3cccnc32)cc1)C(F)(F)F [compound 87] | 0 | 0 |  |
| O=C(OCC1OCCO1)c1cnn(Cc2ccc(OCC3(C(F)(F)F)OCCO3)cc2)c1 [compound 204] | 100 | 0 |  |
| FC(F)(F)C1(COc2ccc(Cc3ccccc3)cc2)OCCO1 [compound 192] | 0 | 0 |  |
| CN(C)C(=O)C1=NOC(c2ccc(OCC3(C(F)(F)F)OCCO3)cc2)C1 (centres unmarked) [compound 22] | 38 | 0 |  |
| CCO/C(=C\Oc1ccc(CN)cc1)C(F)(F)F [compound 110] |  |  | Test A rating (disease control) ([1]; 50 ppm test suspension): 79%; Test B rating (disease control) ([2]; 50 ppm test suspension): 0% |
| CCO/C(=C\Oc1ccc(Cn2cc(C(=O)OC)c3ccccc32)cc1)C(F)(F)F [compound 91] | 0 | 0 |  |
| FC(F)(F)C1(COc2ccc(OCC3(C(F)(F)F)OCCO3)cc2)OCCO1 [compound 28] | 0 | 0 |  |
| CCO/C(=C\Oc1cccc(Cn2cc(C(=O)OCCCCl)cn2)c1)C(F)(F)F [compound 338] | 100 | 0 |  |
| CCO/C(=C\Oc1ccc(Cn2cnc(C#N)n2)cc1)C(F)(F)F [Compound 82] | 97 | 0 |  |
| CN(C)S(=O)(=O)c1ccc(OCC(O)(O)C(F)(F)F)cc1 [Compound 34] | 0 | 80 |  |
| CCOC(=O)C=CCOc1ccc(O/C=C(\OCC)C(F)(F)F)cc1 [compound 96] | 13 | 0 |  |
| O=C(OCc1ccc(Cl)c(Cl)c1)c1cnn(Cc2ccc(OCC(O)(O)C(F)(F)F)cc2)c1 [Compound 49] | 0 | 86 |  |
| CCO/C(=C\Oc1ccc(CNC(=O)C(C)OC)cc1)C(F)(F)F (centres unmarked) [compound 114] |  |  | Test A rating (disease control) ([1]; 50 ppm test suspension): 44%; Test B rating (disease control) ([2]; 50 ppm test suspension): 0% |
| CCO/C(=C\Oc1ccc(Cn2ccc(C(=O)O)n2)cc1)C(F)(F)F [compound 299] | 100 | 0 |  |
| CCO/C(=C\Oc1ccc(Cn2cc(C(=O)OCCOC)cn2)cc1)C(F)(F)F [compound 222] | 100 | 0 |  |
| CCOC(=O)c1cnnn1Cc1ccc(O/C=C(\OCC)C(F)(F)F)cc1 [compound 120] | 0 | 0 |  |
| CCOC(=O)c1ccnn1Cc1ccc(OCC(O)(O)C(F)(F)F)cc1 [Compound 234] |  |  | Test A rating (disease control) ([1]; 50 ppm test suspension): 100%; Test B rating (disease control) ([2]; 50 ppm test suspension): 92% |
| CCO/C(=C\Oc1ccc(C(N)=O)cc1)C(F)(F)F [compound 99] | 0 | 80 |  |
| O=C(OCC1CCC1)c1cnn(Cc2ccc(OCC3(C(F)(F)F)OCCO3)cc2)c1 [compound 249] | 100 | 0 |  |
| CCOC(=O)Cc1nnn(Cc2ccc(O/C=C(\OCC)C(F)(F)F)cc2)n1 [compound 83] | 82 | 0 |  |
